Experimental data taken from ChEMBL document CHEMBL1201861, “Genomics of Drug Sensitity in Cancer screening data, Wellcome Trust Sanger Institute”.

Columns and labels:
HCC1419 = test: cells; assay type: functional, cell-based; details: Homo sapiens;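 also: growth inhibition of human HCC1419 cells, read out as cell viability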
Description: SANGER: Inhibition of human HCC1419 cell growth in a cell viability assay.

LU-99A = test: cells; assay type: functional, cell-based; details: Homo sapiens;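 also: growth inhibition of LU-99A cells, read out with a cell viability assay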
Description: SANGER: Inhibition of human LU-99A cell growth in a cell viability assay.

KYSE-150 cell line = test: cells; assay type: functional, cell-based; details: Homo sapiens;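 also: growth inhibition of human KYSE-150 cells, read out with a cell viability assay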
Description: SANGER: Inhibition of human KYSE-150 cell growth in a cell viability assay.

NCI-H2030 = test: cells; assay type: functional, cell-based; details: Homo sapiens;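 also: growth inhibition of human NCI-H2030 cells, read out by a cell viability assay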
Description: SANGER: Inhibition of human NCI-H2030 cell growth in a cell viability assay.

CPC-N = test: cells; assay type: functional, cell-based, Homo sapiens; details: Homo sapiens, CPC-N;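 also: growth inhibition of CPC-N cells, with a cell viability assay as the readout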
Description: SANGER: Inhibition of human CPC-N cell growth in a cell viability assay.

NCI-H2171 = test: cells; assay type: functional, cell-based, Homo sapiens; details: Homo sapiens, NCI-H2171;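 also: growth inhibition of human NCI-H2171 cells, read out by a cell viability assay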
Description: SANGER: Inhibition of human NCI-H2171 cell growth in a cell viability assay.

DMS-53 = test: cells; assay type: functional, cell-based; details: Homo sapiens;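 also: cell viability assay measuring growth inhibition of human DMS-53 cells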
Description: SANGER: Inhibition of human DMS-53 cell growth in a cell viability assay.

UACC-893 = test: cells; assay type: functional, cell-based; details: Homo sapiens
Description: SANGER: Inhibition of human UACC-893 cell growth in a cell viability assay.

Kasumi 1 = test: cells; assay type: functional, cell-based, Homo sapiens; details: Homo sapiens, Kasumi 1;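 also: growth inhibition of human Kasumi-1 cells, read out by a cell viability assay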
Description: SANGER: Inhibition of human KASUMI-1 cell growth in a cell viability assay.

LC-1F = test: cells; assay type: functional, cell-based, Homo sapiens; details: Homo sapiens, LC-1F;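 also: growth inhibition of human LC-1F cells, read out with a cell viability assay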
Description: SANGER: Inhibition of human LC-1F cell growth in a cell viability assay.

EB-3 = test: cells; assay type: functional, cell-based, Homo sapiens; details: Homo sapiens, EB-3;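 also: human EB-3 cells, growth inhibition read out via a cell viability assay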
Description: SANGER: Inhibition of human EB-3 cell growth in a cell viability assay.

EFO-27 = test: cells; assay type: functional, cell-based; details: Homo sapiens;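 also: growth inhibition of EFO-27 cells, read out with a cell viability assay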
Description: SANGER: Inhibition of human EFO-27 cell growth in a cell viability assay.

NCI-H2227 = test: cells; assay type: functional, cell-based; details: Homo sapiens;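 also: growth inhibition of the human cell line, read out with a cell viability assay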
Description: SANGER: Inhibition of human NCI-H2227 cell growth in a cell viability assay.

DoTc2-4510 = test: cells; assay type: functional, cell-based; details: Homo sapiens
NCI-H1694 = test: cells; assay type: functional, cell-based, Homo sapiens; details: Homo sapiens, NCI-H1694;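 also: cell viability assay measuring inhibition of growth in human NCI-H1694 cells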
Description: SANGER: Inhibition of human NCI-H1694 cell growth in a cell viability assay.

C32 = test: cells; assay type: functional, cell-based; details: Homo sapiens;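 also: cell viability assay, with IC50 reflecting inhibition of C32 cell growth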
Description: SANGER: Inhibition of human C32 cell growth in a cell viability assay.

DMS-79 = test: cells; assay type: functional, cell-based, Homo sapiens; details: Homo sapiens, DMS-79
Description: SANGER: Inhibition of human DMS-79 cell growth in a cell viability assay.

OE19 = test: cells; assay type: functional, cell-based; details: Homo sapiens;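 also: growth inhibition of OE19 cells, measured through a cell viability read-out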
Description: SANGER: Inhibition of human OE19 cell growth in a cell viability assay.

PLC-PRF-5 = test: cells; assay type: functional, cell-based; details: Homo sapiens;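 also: growth inhibition of human PLC-PRF-5 cells, read out with a viability assay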
Description: SANGER: Inhibition of human PLC-PRF-5 cell growth in a cell viability assay.

RPMI-7951 = test: cells; assay type: functional, cell-based; details: Homo sapiens
Description: SANGER: Inhibition of human RPMI-7951 cell growth in a cell viability assay.

HSC-4 = test: cells; assay type: functional, cell-based; details: Homo sapiens;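 also: growth inhibition of human HSC-4 cells, read out with a cell viability assay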
Description: SANGER: Inhibition of human HSC-4 cell growth in a cell viability assay.

WSU-NHL = test: cells; assay type: functional, cell-based, Homo sapiens; details: Homo sapiens, WSU-NHL;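 also: growth inhibition of human WSU-NHL cells, read out with a cell viability assay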
Description: SANGER: Inhibition of human WSU-NHL cell growth in a cell viability assay.

HLE = test: cells; assay type: functional, cell-based; details: Homo sapiens;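 also: growth inhibition of human HLE cells, read out by a cell viability assay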
Description: SANGER: Inhibition of human HLE cell growth in a cell viability assay.

RPMI 8402 = test: SANGER: Inhibition of human RPMI-8402 cell growth in a cell viability assay.; assay type: functional, cell-based; details: Homo sapiens, RPMI 8402
NCCIT = test: SANGER: Inhibition of human NCCIT cell growth in a cell viability assay.; assay type: functional, cell-based; details: Homo sapiens, NCCIT
ChaGo-K-1 = test: cells; assay type: functional, cell-based; details: Homo sapiens;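 also: growth inhibition of ChaGo-K-1 cells, read out with a cell viability assay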
Description: SANGER: Inhibition of human ChaGo-K-1 cell growth in a cell viability assay.

HCC1143 = test: cells; assay type: functional, cell-based; details: Homo sapiens;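 also: growth inhibition of human HCC1143 cells, read out with a cell viability assay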
Description: SANGER: Inhibition of human HCC1143 cell growth in a cell viability assay.

NCI-H1437 = test: cells; assay type: functional, cell-based; details: Homo sapiens;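 also: growth inhibition of human NCI-H1437 cells, read out by a cell viability assay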
Description: SANGER: Inhibition of human NCI-H1437 cell growth in a cell viability assay.

Calu-1 = test: SANGER: Inhibition of human Calu-1 cell growth in a cell viability assay.; assay type: functional, cell-based
NCI-H2009 = test: cells; assay type: functional, cell-based; details: Homo sapiens;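 also: cell viability assay measuring inhibition of NCI-H2009 cell growth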
Description: SANGER: Inhibition of human NCI-H2009 cell growth in a cell viability assay.

NCI-H1651 = test: cells; assay type: functional, cell-based; details: Homo sapiens;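 also: Read-out is a cell viability assay, with IC50 expressing inhibition of NCI-H1651 cell growth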
Description: SANGER: Inhibition of human NCI-H1651 cell growth in a cell viability assay.

MKN-1 = test: cells; assay type: functional, cell-based; details: Homo sapiens;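 also: growth inhibition of human MKN1 cells, read out by a cell viability measurement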
Description: SANGER: Inhibition of human MKN1 cell growth in a cell viability assay.

Capan-2 = test: cells; assay type: functional, cell-based; details: Homo sapiens;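 also: Capan-2 cell growth inhibition, read out with a viability assay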
Description: SANGER: Inhibition of human Capan-2 cell growth in a cell viability assay.

RT-4 = test: SANGER: Inhibition of human RT4 cell growth in a cell viability assay.; assay type: functional, cell-based
NCI-H1793 = test: cells; assay type: functional, cell-based; details: Homo sapiens;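 also: cell growth inhibition, read out by a cell viability assay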
Description: SANGER: Inhibition of human NCI-H1793 cell growth in a cell viability assay.

G-361 = test: cells; assay type: functional, cell-based; details: Homo sapiens
EFM-19 = test: cells; assay type: functional, cell-based; details: Homo sapiens;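 also: growth inhibition of human EFM-19 cells, measured in a cell viability assay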
Description: SANGER: Inhibition of human EFM-19 cell growth in a cell viability assay.

NCI-H2228 = test: cells; assay type: functional, cell-based; details: Homo sapiens;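 also: growth inhibition of human NCI-H2228 cells, read out by a cell viability assay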
Description: SANGER: Inhibition of human NCI-H2228 cell growth in a cell viability assay.

C-4-II = test: SANGER: Inhibition of human C-4-II cell growth in a cell viability assay.; assay type: functional, cell-based
YKG-1 = test: cells; assay type: functional, cell-based; details: Homo sapiens;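 also: cell growth inhibition, read out with a viability assay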
Description: SANGER: Inhibition of human YKG-1 cell growth in a cell viability assay.

NCI-H1734 = test: cells; assay type: functional, cell-based; details: Homo sapiens;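 also: growth inhibition of human NCI-H1734 cells, read out with a cell viability assay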
Description: SANGER: Inhibition of human NCI-H1734 cell growth in a cell viability assay.

U-118-MG = test: cells; assay type: functional, cell-based; details: Homo sapiens
Description: SANGER: Inhibition of human U-118-MG cell growth in a cell viability assay.

SU-DHL-1 = test: SANGER: Inhibition of human SU-DHL-1 cell growth in a cell viability assay.; assay type: functional, cell-based; details: Homo sapiens, SU-DHL-1
HCC 2998 = test: cells; assay type: functional, cell-based; details: Homo sapiens;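 also: growth inhibition of human HCC2998 cells, measured with a cell viability read-out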
Description: SANGER: Inhibition of human HCC2998 cell growth in a cell viability assay.

TUR = test: cells; assay type: functional, cell-based, Homo sapiens; details: Homo sapiens, TUR;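 also: growth inhibition of human TUR cells, read out with a cell viability assay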
Description: SANGER: Inhibition of human TUR cell growth in a cell viability assay.

IPC-298 = test: SANGER: Inhibition of human IPC-298 cell growth in a cell viability assay.; assay type: functional, cell-based

Measured: IC50

COC(=O)[C@H](CCSC)NC(=O)c1ccc(NC[C@@H](N)CS)cc1-c1ccccc1
> 1020 nM: all assays above

Cc1ccc(C(=O)Nc2ccc(CN3CCN(C)CC3)c(C(F)(F)F)c2)cc1C#Cc1cnc2cccnn12 [PONATINIB]
312 nM: NCI-H2030
419 nM: HLE
63.8 nM: SU-DHL-1
2.17 nM: Kasumi 1
424 nM: KYSE-150 cell line
451 nM: RT-4
not listed: NCI-H2171 | TUR
> 512 nM: all other assays above

O=S(=O)(O)c1ccc2cc(/N=N/c3cc(S(=O)(=O)O)c4cccnc4c3O)ccc2c1
> 16000 nM: all assays above

OC[C@H](Cc1ccccc1)Nc1nc(Oc2ccc3c(c2)CCC3)nc2c1ncn2Cc1ccc(-c2ccccc2)cc1
5250 nM: NCI-H2030
2060 nM: G-361
5660 nM: HLE
6890 nM: NCI-H1437
9340 nM: KYSE-150 cell line
1410 nM: RPMI-7951
2610 nM: Calu-1
7110 nM: YKG-1
not listed: Kasumi 1
> 10200 nM: all other assays above
